From patent US20020103127A1, “Inhibitors of proteasomal activity for stimulating hair growth” (priority 1998, published 2002)
Where a SMILES comes first, the peptide text is derived from it. [ ]: non-standard residue; d: D form. The star is where a group is joined. Nva = CCC[C@H](N)C(=O)O; Cbz = O=C(OCc1ccccc1)*; OtBu = CC(C)(C)O*

What was measured:
[1] = compared with proteasome inhibitors such as MG-132
calvarial bone = assay: in vitro calvarial assay; assay type: cell-based
hair follicles [2] = assay: Modified in vivo calvarial assay: number of hair follicles after injection over the calvaria; design: species or system Swiss ICR mice; conditions: for number of hair follicles: administered in the same way as PSI (injection over the calvaria)
Experimental: Male ICR Swiss white mice, aged 4-6 weeks and weighing 13-26 gm, are employed, using 4-5 mice per group. The calvarial bone growth assay is performed as described in PCT application WO95/242 11, incorporated by reference. Briefly, the test compound or appropriate control vehicle is injected into the subcutaneous tissue over the right calvaria of normal mice. Typically, the control vehicle is the vehicle in which the compound was solubilized, and is PBS containing 5% DMSO or is PBS containing Tween (2 μl/10 ml). The animals are sacrificed on day 14 and bone growth measured by histomorphometry. Bone samples for quantitation are cleaned from adjacent tissues and fixed in 10% buffered formalin for 24-48 hours, decalcified in 14% EDTA for 1-3 weeks, processed through graded alcohols; and embedded in paraffin wax. Three to five μm sections of the calvaria are prepared, and representative sections are selected for histomorphometric assessment of the effects on bone formation and bone resorption. Sections are measured by using a camera lucida attachment to trace directly the microscopic image onto a digitizing plate. Bone changes are measured on sections cut 200 μm apart, over 4 adjacent 1×1 mm fields on both the injected and noninjected sides of the calvaria. New bone is identified by its characteristic woven structure, and osteoclasts and osteoblasts are identified by their distinctive morphology. Histomorphometry software (OsteoMeasure, Osteometrix, Inc., Atlanta) is used to process digitizer input to determine cell counts and measure areas or perimeters.
(§1) The assay described above to assess the effect of compounds on calvarial bone growth can also be used to assess the ability of compounds to stimulate hair growth. The test compound or appropriate control vehicle is applied to the upper and lower back of male ICR Swiss white mice either topically or by subcutaneous injection. The vehicle is selected as appropriate for the compound to be tested and for the route of administration. Optionally, the hair in the test area may be removed prior to administration. After a suitable interval, typically 7 days, the mice are anesthetized and a biopsy of the dorsal treatment area is taken using a 6 mm dermal punch. The specimens are fixed in 10% buffered formalin and imbedded in paraffin wax, and sectioned and stained to observe hair follicles. In addition, photography can be used to observe and record hair growth; typically such growth is observed after 14-18 days. After a suitable interval, typically 21 days, the animals may be euthanized and the hair analyzed for fiber analysis and the tissue from the treatment area analyzed for quantitation of hair follicles.
The in vivo bone calvarial growth assay of Example 3 was modified to observe the number of hair follicles in treated mice. […]

hair follicles [3] = assay: Topical administration of PSI solution, hair growth; assay type: in vivo, mice
Experimental: PSI was prepared as a topical formulation, where the vehicle was 50% propylene glycol, 30% ethanol, 20% deionized water, at 0.1% concentration of PSI. The solution was applied 3 times a day for 5 days. The mice in a treated group were observed as compared to controls similarly treated with vehicle alone.
When the protocol above was repeated using a 0.5% solution of PSI in groups containing 5 mice each, the number of hairs per 0.8 mm^2 was 60 in the treated mice versus about 10 in the control group. The percentage of follicle area in a region of about 0.8 mm^2 was about 30% as an average in the treated group as compared to 15% as an average in the control group.

hair follicles [4] = assay: Topical dose response of PSI (dose requirements); assay type: in vivo, mice
Experimental: In order to determine the minimal effective dosage of PSI, when used topically, a dose response curve for PSI was prepared. All experiments were preformed according to current good laboratory practice regulations (21CFR58). The mice were divided into 7 groups, 10 mice each, wherein one group was control treated only with vehicle and groups 1-6 with a series of increasing concentrations of PSI in a vehicle comprising 50% propylene glycol, 30% ethanol, 20% deionized water. The concentrations were 0.006%, 0.012%, 0.025%, 0.05%, 0.11% and 0.5%.
The mice were anesthetized (50 μl Mouse Cocktail containing 3 ml ketamine, 2 ml small animal rompum, 5 ml NaCl), identified by ear punch code, weighed and the hair on the dorsal side removed by waxing as described in Example 6. After waxing, the animals were photographed. On the following day (day 1), 100 μl of PSI at the above concentrations in vehicle was brushed onto the area of removed hair. […]
On Day 7 mice were anesthetized and a biopsy of the dorsal treatment area taken using a 6 mm dermal punch; the specimens were fixed in 10% buffered formalin and embedded in paraffin wax. Sections were cut using a standard microtome.
Mice were monitored daily for signs of hair growth, and any hair growth was recorded by photography. On day 21 animals were euthanized (75 mg/kg body weight phenobarbital, IP injection), 2 cm hair samples were taken for optical based fiber analysis, and the remaining dorsal treatment area was fixed in 10% buffered formalin for further histological analysis. Analysis included quantification of hair thickness and quantification of mature hair follicles. Results were expressed as the mean =+/− the standard error of the mean. Data were analyzed by repeated measures of analysis of variance followed by the Tukey-Kramer post test P values of <0.05 were considered significant.

hair follicles [5] = assay: Stimulation of hair growth: subcutaneous injection into scalp and dorsal region after wax hair stripping; assay type: in vivo, Male Swiss ICR mice; conditions: 1 mg/kg/day s.c. three times a day for five days
Text: as §1
Male Swiss ICR mice were first treated to remove hair from the scalp and dorsal regions as follows. Paraffin wax was liquefied by heating to 55° C. and the liquefied wax then applied by brush to the scalp and/or back (under anesthesia). The wax was allowed to solidify and then removed. The day following hair stripping, PSI (1 mg/kg/day) was injected subcutaneously three times a day for five days into the scalp and dorsal region.
The mice were sacrificed on day 21 and histology was performed on the dermis of the scalp and of the dorsal region. […] Upon closer examination, it was observed that mice that had received only vehicle had quiescent hair follicles.

[6] = topical 0.5% solution of PSI, 3 times a day for 5 days, groups of 5 mice

Q: For `C=C(C)[C@]12C[C@@H](C)[C@@]34O[C@](Cc5ccccc5)(O[C@@H]1[C@@H]3C=C(COC(=O)Cc1ccc(O)c(OC)c1)C[C@]1(O)C(=O)C(C)=C[C@@H]41)O2` [resiniferatoxin], which “activity in the ABA assay” value [1] is on record?
A: less active

Q: With `CC(=O)CCCCn1c(=O)c2c(ncn2C)n(C)c1=O` [pentoxyfilline] as the compound, how does the “activity in the in vitro calvarial assay” value (calvarial bone) read?
A: active

Q: Which “number of hair follicles” value (hair follicles [2]; dose not given) does the source give for `CC(=O)N[C@@H](CSC(=O)[C@]1([C@@H](O)C(C)C)NC(=O)[C@H](C)[C@@H]1O)C(=O)O` [lactacysin, lactacystin] here?
A: stimulated an increase in the number of hair follicles

Q: With `CCC[C@@H](C=O)NC(=O)[C@H](CC(C)C)NC(=O)[C@H](CC(C)C)NC(=O)OCc1ccccc1` [MG115, N-carbobenzoyl-Leu-Leu-Nva-CHO] (Cbz-Leu-Leu-[Nva]-aldehyde) as the compound, how does the “number of hair follicles” value (hair follicles [2]; 10 mg/kg) read?
A: stimulated an increase in the number of hair follicles

Q: What does the source list for `CC[C@H](C)[C@H](NC(=O)OCc1ccccc1)C(=O)N[C@@H](CCC(=O)OC(C)(C)C)C(=O)N[C@@H](C)C(=O)N[C@H](C=O)CC(C)C` [PSI, N-carbobenzoyl-Ile-Glu-(OtBu)-Ala-Leu-CHO] (Cbz-IE(OtBu)AL-aldehyde)?
A: hair growth relative to vehicle controls (hair follicles [3]; topical 0.1% PSI in 50% propylene glycol, 30% ethanol, 20% water, 3 times a day for 5 days, day 16): stimulation of hair growth relative to the controls; number of hairs per 0.8 mm^2 (hair follicles [3]; [6]): 60 per 0.8 mm^2; percentage of follicle area in a region of about 0.8 mm^2 (average) (hair follicles [3]; [6]): about 30%; thickness of hair and hair shaft (hair follicles [3]; topical PSI): able to thicken both the hair and the hair shaft; hair count (hair follicles [3]; topical PSI, follicle area greater than 0.01 mm^2): increases hair count; efficacy on hair growth (additional experiments) (hair follicles [4]; 0.1% applied topically 3 times a day for 5 days): also effective; gross observation of hair growth (hair follicles [4]; mice receiving an effective topical dose): an enhanced rate of hair growth, a thickening of hair diameter, increase in sheath diameter, and differentiation of quiescent hair follicles into more mature forms; minimal effective dose (topical concentration) (hair follicles [4]; topical, applied 1 time a day for 4 days, 100 μl in 50% propylene glycol, 30% ethanol, 20% water): 0.5%; hair growth rate versus control group (hair follicles [5]; by day 18): hair growth rate greater than that of the mice in the control group; number of hair follicles (dermal punch biopsy histology) versus control mice (hair follicles [5]; day 7): large increase in the number of hair follicles; effect on quiescent hair follicles (histology) (hair follicles [5]; day 21): stimulated to differentiate into mature hair follicles and to migrate to the lower region of the dermis; mature hair follicles in dermis of scalp and dorsal region (histology) (hair follicles [5]; day 21): mature hair follicles in numbers much greater than in controls had migrated to the lower region of the dermis; number of hair follicles (histology of the calvaria) versus control mice (hair follicles [2]; 5mg/kg/day injected three times a day for 5 days over the calvaria, sacrificed sixteen days later): strikingly large increase in the number of hair follicles

Q: With `CC(C)C[C@@H](C=O)NC(=O)[C@H](CC(C)C)NC(=O)[C@H](CC(C)C)NC(=O)OCc1ccccc1` [MG132, N-carbobenzoyl-Leu-Leu-Leu-CHO] (Cbz-Leu-Leu-Leu-aldehyde) as the compound, how does the “number of hair follicles” value (hair follicles [2]; 10 mg/kg) read?
A: stimulated an increase in the number of hair follicles
